Broadly, the inhibition is the change of the read-out against control, counted positive when it falls. The IC50 is the concentration that gives 50% inhibition.

T1 sequence (P49841 whole entry): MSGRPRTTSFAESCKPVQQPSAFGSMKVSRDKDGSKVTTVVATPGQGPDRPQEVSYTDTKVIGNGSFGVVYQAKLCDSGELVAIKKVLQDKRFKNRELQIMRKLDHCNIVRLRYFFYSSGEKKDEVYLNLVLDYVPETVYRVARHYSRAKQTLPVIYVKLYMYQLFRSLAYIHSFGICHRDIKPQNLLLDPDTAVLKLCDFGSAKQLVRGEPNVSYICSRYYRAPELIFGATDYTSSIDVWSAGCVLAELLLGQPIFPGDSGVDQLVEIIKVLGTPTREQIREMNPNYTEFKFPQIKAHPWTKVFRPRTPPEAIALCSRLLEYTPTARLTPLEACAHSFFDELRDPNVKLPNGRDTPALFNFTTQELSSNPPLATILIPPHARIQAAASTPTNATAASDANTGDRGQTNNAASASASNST

One test concerns the target T1, Recombinant human GSK3β (Homo sapiens, UniProt P49841).
T1 construct: His-tag; made in house; host or cells: Sf9 insect cells / baculovirus
Nature of the test: GSK-3β (Glycogen Synthase Kinase) cell free enzyme assay. The class given is biochemical. Conditions: 1 μM; Examples 157-199; read-out: Percent inhibition at 1 μM. In a few lines:
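This cell-free kinase assay measured [33P] transfer from [33P]ATP gamma phosphate into the biotinylated peptide bio-LC-S-R-H-S-S-P-H-Q-pS-E-D-E-E-E-OH. After 60 min at RT, reactions were stopped with 0.66 volume of PBS lacking Ca or Mg containing 12.5 mM EDTA, 0.25% Triton-X 100, 125 uM ATP and 6.2 mg/ml streptavidin SPA beads. Bead-bound radioactivity was counted as CPM on a Trilux scintillation counter.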
For the molecule `Cn1c(NC2CCCN(S(=O)(=O)c3ccccc3)C2)nc(-c2ccncc2)cc1=O` (stereo not drawn) [Example 179, 3-Methy-2-{[1-(phenylsulfonyl)piperidin-3-yl]amino}-6-pyridin-4-ylpyrimidin-4(3H)-one], the inhibition at 1 µM stood at 93%.
For `Cn1c(NC[C@H]2CCCN2S(=O)(=O)c2ccccc2)nc(-c2ccncc2)cc1=O` [Example 188, 3-Methyl-2-({[(2R)-1-(phenylsulfonyl)pyrrolidin-2-yl]methyl}amino)-6-pyridin-4-ylpyrimidin-4(3H)-one], the inhibition at 1 µM turned out to be 94%.
For the molecule `CCN(c1nc(-c2ccncc2)cc(=O)n1C)C1CCN(S(=O)(=O)Cc2ccccc2)C1` (stereo not drawn) [Example 198, 2-{[1-(Benzylsulfonyl)pyrrolidin-3-yl](ethyl)amino}-3-methyl-6-pyridin-4-ylpyrimidin-4(3H)-one], the inhibition at 1 µM turned out to be 97%.
Regarding `Cn1c(N[C@H]2[C@@H]3CN(S(C)(=O)=O)C[C@@H]32)nc(-c2ccncc2)cc1=O` [Example 157, 3-Methyl-2-{[(1R,5S,6s)-3-(methylsulfonyl)-3-azabicyclo[3.1.0]hex-6-yl]amino}-6-pyridin-4-ylpyrimidin-4(3H)-one], the inhibition at 1 µM worked out at 61%.
The same measure, in the same setting: for `CCN(c1nc(-c2ccncc2)cc(=O)n1C)C1CCN(S(=O)(=O)c2ccccc2)CC1` [Example 187, 2-{Ethyl[1-(phenylsulfonyl)piperidin-4-yl]amino}-3-methyl-6-pyridin-4-ylpyrimidin-4(3H)-one] the value was 102%; for `Cn1c(N[C@@H]2CN(S(=O)(=O)c3ccccc3)C[C@@H]2F)nc(-c2ccncc2)cc1=O` [Example 184, 2-{[(3R,4S)-4-Fluoro-1-(phenylsulfonyl)pyrrolidin-3-yl]amino}-3-methyl-6-pyridin-4-ylpyrimidin-4(3H)-one], 100%.

The test is the same for the next values; noted with them: 1 μM; Examples 201-221; read-out: Percent inhibition at 1 μM.
Take `COC(=O)N1CCC[C@H]1CNc1nc(-c2ccncc2)cc(=O)n1C` [Example 218, Methyl (2S)-2-{[(1-methyl-6-oxo-4-pyridin-4-yl-16-dihydropyrimidin-2-yl)amino]methyl}pyrrolidine-1-carboxylate]: the inhibition at 1 µM is 68%.
As for `COC(=O)N1CC(Nc2nc(-c3ccncc3)cc(=O)n2C)C1` [Example 209, Methyl 3-[(1-methyl-6-oxo-4-pyridin-4-yl-16-dihydropyrimidin-2-yl)amino]azetidine-1-carboxylate], the inhibition at 1 µM was 80%.

The test is the same for the next values; noted with them: 1 μM; Examples 236-262; read-out: Percent inhibition at 1 μM.
For `CN1CCCC(N(C)c2nc(-c3ccncc3)cc(=O)n2C)CC1` (stereo not drawn) [Example 243, 3-Methyl-2-[methyl(1-methylazepan-4-yl)amino]-6-pyridin-4-ylpyrimidin-4(3H)-one], the inhibition at 1 µM was 60%.
Same read-out and setting: for `CN1C[C@H](F)[C@H](Nc2nc(-c3ccncc3)cc(=O)n2C)C1` [Example 246, 2-{[(3R,4S)-4-Fluoro-1-methylpyrrolidin-3-yl]amino}-3-methyl-6-pyridin-4-ylpyrimidin-4(3H)-one] the value was 67%.

The test is the same for the next values; noted with them: 1 μM; GSK-3β cell free enzyme assay; Examples 42-60; read-out: Percent inhibition at 1 μM.
`CCN(c1nc(-c2ccncc2)cc(=O)n1C)C1CCN(C(C)=O)C1` (stereo not drawn) [Example 54, 2-[(1-Acetylpyrrolidin-3-yl)(ethyl)amino]-3-methyl-6-pyridin-4-ylpyrimidin-4(3H)-one]: the inhibition at 1 µM was 64%.

Staying with this test, now noted: cell free enzyme assay; Examples 1-35.
For the molecule `CCN(c1nc(-c2ccncc2)cc(=O)n1C)C1CCCN(C(=O)OC(C)(C)C)CC1` (stereo not drawn) [Example 15, tert-butyl 4-[Ethyl(1-methyl-6-oxo-4-pyridin-4-yl-1,6-dihydropyrimidin-2-yl)amino]azepane-1-carboxylate], the IC50 is 0.031 µM.
Same read-out and setting: for `Cn1c(N[C@H]2Cc3ccccc3NC2=O)nc(-c2ccncc2)cc1=O` [Example 9, (3S)-3-[(1-Methyl-6-oxo-4-pyridin-4-yl-1,6-dihydropyrimidin-2-yl)amino]-3,4-dihydroquinolin-2(1H)-one] the value was 0.03 µM; for `Cn1c(NCC2CCCN2C(=O)OC(C)(C)C)nc(-c2ccncc2)cc1=O` (stereo not drawn) [Example 18, tert-butyl 2-{[(1-Methyl-6-oxo-4-pyridin-4-yl-1,6-dihydropyrimidin-2-yl)amino]methyl} pyrrolidine-1-carboxylate], 0.107 µM; for `Cn1c(N[C@H]2CN(C(=O)OC(C)(C)C)C[C@@H]2F)nc(-c2ccncc2)cc1=O` [Example 17, tert-butyl (3S,4S)-3-Fluoro-4-[(1-methyl-6-oxo-4-pyridin-4-yl-1,6-dihydropyrimidin-2-yl)amino]pyrrolidine-1-carboxylate], 0.0263 µM.
As to `Cn1c(N2[C@@H]3CC[C@H]2CN(C(=O)OC(C)(C)C)C3)nc(-c2ccncc2)cc1=O` [Example 12, tert-butyl (1R,5S)-8-(1-Methyl-6-oxo-4-pyridin-4-yl-1,6-dihydropyrimidin-2-yl)-3,8-diazabicyclo[3.2.1] octane-3-carboxylate], the IC50 is 0.0324 µM.

The same test, now with this note: cell free enzyme assay; Examples 62-155.
Turning to `CN(c1nc(-c2ccncc2F)cc(=O)n1C)[C@H]1[C@@H]2CN(C(=O)c3ccc(OC(F)F)cc3)C[C@@H]21` [Example 113, 2-[{(1R,5S,6s)-3-[4-(Difluoromethoxy)benzoyl]-3-azabicyclo[3.1.0]hex-6-yl}(methyl)amino]-6-(3-fluoropyridin-4-yl)-3-methylpyrimidin-4(3H)-one], the IC50 worked out at 0.00857 µM.
In the case of `CN(c1nc(-c2ccncc2F)cc(=O)n1C)[C@H]1[C@@H]2CN(C(=O)c3ccc(F)cc3)C[C@@H]21` [Example 139, 2-{[(1R,5S,6s)-3-(4-Fluorobenzoyl)-3-azabicyclo[3.1.0]hex-6-yl](methyl)amino}-6-(3-fluoropyridin-4-yl)-3-methylpyrimidin-4(3H)-one], the IC50 is 0.00567 µM.
On to `Cn1c(NC2CN(C(=O)Cc3ccccc3)C2)nc(-c2ccncc2)cc1=O` [Example 82, 3-Methyl-2-{[1-(phenylacetyl)azetidin-3-yl]amino}-6-pyridin-4-ylpyrimidin-4(3H)-one], for which the IC50 was 0.818 µM.
As for `CN(c1nc(-c2ccncc2F)cc(=O)n1C)[C@H]1[C@@H]2CN(C(=O)C3CCCC3)C[C@@H]21` [Example 108, 2-{[(1R,5S,6s)-3-(Cyclopentylcarbonyl)-3-azabicyclo[3.1.0]hex-6-yl](methyl)amino}-6-(3-fluoropyridin-4-yl)-3-methylpyrimidin-4(3H)-one], the IC50 was found to be 0.00639 µM.
As for `Cn1c(NC2CCCCN(C(=O)Cc3ccccc3)C2)nc(-c2ccncc2)cc1=O` (stereo not drawn) [Example 84, 3-Methyl-2-{[1-(phenylacetyl)azepan-3-yl]amino}-6-pyridin-4-ylpyrimidin-4(3H)-one], the IC50 was 0.674 µM.
Same read-out and setting: for `Cc1cc(C(=O)N2C[C@@H]3[C@H](C2)[C@H]3N(C)c2nc(-c3ccncc3F)cc(=O)n2C)c(C)o1` [Example 147, 2-{[(1R,5S,6s)-3-(2,5-Dimethyl-3-furoyl)-3-azabicyclo[3.1.0]hex-6-yl](methyl)amino}-6-(3-fluoropyridin-4-yl)-3-methylpyrimidin-4(3H)-one] the value was 0.0037 µM; for `CN(c1nc(-c2ccncc2F)cc(=O)n1C)[C@H]1[C@@H]2CN(C(=O)Cc3cccs3)C[C@@H]21` [Example 146, 6-(3-Fluoropyridin-4-yl)-3-methyl-2-{methyl[(1R,5S,6s)-3-(2-thienylacetyl)-3-azabicyclo[3.1.0]hex-6-yl]amino}pyrimidin-4(3H)-one], 0.00616 µM; for `CN(c1nc(-c2ccncc2F)cc(=O)n1C)[C@H]1[C@@H]2CN(C(=O)c3ccncc3Cl)C[C@@H]21` [Example 148, 2-{[(1R,5S,6s)-3-(3-Chloroisonicotinoyl)-3-azabicyclo[3.1.0]hex-6-yl](methyl)amino}-6-(3-fluoropyridin-4-yl)-3-methylpyrimidin-4(3H)-one], 0.0361 µM.
Still for that read-out and setting: to `CC[C@@H](Oc1ccccc1)C(=O)N1C[C@@H]2[C@H](C1)[C@H]2N(C)c1nc(-c2ccncc2F)cc(=O)n1C` [Example 145, 6-(3-Fluoropyridin-4-yl)-3-methyl-2-{methyl[(1R,5S,6s)-3-(2-phenoxybutanoyl)-3-azabicyclo[3.1.0]hex-6-yl]amino}pyrimidin-4(3H)-one] belongs 0.0132 µM.

The same test, now with this note: cell free enzyme assay; Examples 222-234.
`CN(c1nc(-c2ccncn2)cc(=O)n1C)[C@@H]1CCCN(C(=O)C2CC2)C1` [Example 234, 2-{[(3R)-1-(Cyclopropylcarbonyl)piperi-din-3-yl](methyl)amino}-1-methyl-4,4′-bipyrimidin-6(1H)-one]: the IC50 turned out to be 0.00168 µM.
On the same count and under the same terms, for `CCOC(=O)N1CCC[C@H]1CN(CC)c1nc(-c2ccncn2)cc(=O)n1C` [Example 225, Ethyl (2S)-2-{[ethyl(1-methyl-6-oxo-1,6-dihydro-4,4′-bipyrimidin-2-yl)amino]methyl}pyrrolidine-1-carboxylate] the value was 0.000755 µM.

Staying with this test, now noted: cell free enzyme assay; Examples 265-291.
For `CCOC(=O)c1cccc(-n2nnnc2N2C[C@@H]3[C@H](C2)[C@H]3N(C)c2nc(-c3ccncc3F)cc(=O)n2C)c1` [Example 276, Ethyl 3-{5-[(1R,5S,6s)-6-{[4-(3-fluoropyridin-4-yl)-1-methyl-6-oxo-1,6-dihydropyrimidin-2-yl](methyl)amino}-3-azabicyclo[3.1.0]hex-3-yl]-1H-tetrazol-1-yl}benzoate], the IC50 was 0.00621 µM.
Consider `CN(c1nc(-c2ccncc2F)cc(=O)n1C)[C@H]1[C@@H]2CN(c3nnnn3C3CCCC3)C[C@@H]21` [Example 284, 2-{[(1R,5S,6s)-3-(1-Cyclopentyl-1H-tetrazol-5-yl)-3-azabicyclo[3.1.0]hex-6-yl](methyl)amino}-6-(3-fluoropyridin-4-yl)-3-methylpyrimidin-4(3H)-one], for which the IC50 worked out at 0.0125 µM.
Turning to `CN(c1nc(-c2ccncc2F)cc(=O)n1C)[C@H]1[C@@H]2CN(c3nc4ccccc4o3)C[C@@H]21` [Example 270, 2-{[(1R,5S,6s)-3-[1,3-Benzoxazol-2-yl)-3-azabicyclo[3.1.0]hex-6-yl](methyl)amino}-6-(3-fluoropyridin-4-yl)-3-methylpyrimidin-4(3H)-one], the IC50 worked out at 0.0246 µM.
